{"source": "patent US20230104936A1", "about": "“TRPML MODULATORS” (Casma Therapeutics, Inc., priority 2019, published 2023)"}
{"tested_on": "TFEB", "test": "TFEB nuclear translocation assay, HeLa wt cells", "type": "cell-based", "conditions": "Homo sapiens, HeLa, 2 h, 2 hrs compound treatment, Table 1 does not say HeLa wt or TRPML1 KO", "outline": "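AC50 derived from the ratio of nuclear to perinuclear ring (−5 μm) anti-TFEB immunofluorescence, imaged at ×20 over four fields per well. HeLa wt or TRPML1 KO cells were exposed to compounds for 2 hrs at 37° C, then PFA-fixed and counterstained with Hoechst.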", "units": {"AC50": "µM"}}
{"smiles": "CC1(C)Cc2cc(S(=O)(=O)Nc3ccccc3N3CCC4(CCOCC4)CC3)ccc2O1", "note": "[Compound A-654, 2,2-dimethyl-N-(2-{3-oxa-9-azaspiro[5.5]undecan-9-yl}phenyl)-2,3-dihydro-1-benzofuran-5-sulfonamide]", "AC50": "≤ 2"}
{"smiles": "COCC1(C)CCN(c2ccccc2NS(=O)(=O)c2ccc(C(C)(C)OC)cc2)CC1", "note": "[Compound A-655, N-{2-[4-(methoxymethyl)-4-methylpiperidin-1-yl]phenyl}-4-(2-methoxypropan-2-yl)benzene-1-sulfonamide]", "AC50": "2.01 to 8"}
{"smiles": "COC(C)(C)c1ccc(S(=O)(=O)Nc2ccccc2N2CCC3(CC2)COC(C)(C)C3)cc1", "note": "[Compound A-656, N-(2-{3,3-dimethyl-2-oxa-8-azaspiro[4.5]decan-8-yl}phenyl)-4-(2-methoxypropan-2-yl)benzene-1-sulfonamide]", "AC50": "2.01 to 8"}
{"smiles": "CC(C)C(=O)c1ccc(S(=O)(=O)Nc2ccccc2N2CCC3(CC2)COC(C)(C)C3)cc1", "note": "[Compound A-657, N-(2-{3,3-dimethyl-2-oxa-8-azaspiro[4.5]decan-8-yl}phenyl)-4-(2-methylpropanoyl)benzene-1-sulfonamide]", "AC50": "8.01 to 9.99"}
{"smiles": "CC(C)c1ccc(S(=O)(=O)Nc2ccccc2N2CCC3(CC2)COC(C)(C)C3)cc1", "note": "[Compound A-658, N-(2-{3,3-dimethyl-2-oxa-8-azaspiro[4.5]decan-8-yl}phenyl)-4-(propan-2-yl)benzene-1-sulfonamide]", "AC50": "≤ 2"}
{"smiles": "COC1Cc2ccc(S(=O)(=O)Nc3ccccc3N3CCC4(CC3)COC(C)(C)C4)cc2C1", "note": "(centres unmarked) [Compound A-659, N-(2-{3,3-dimethyl-2-oxa-8-azaspiro[4.5]decan-8-yl]phenyl)-2-methoxy-2,3-dihydro-1H-indene-5-sulfonamide]", "AC50": "2.01 to 8"}
{"smiles": "CC1(C)CC2(CCN(c3ccccc3NS(=O)(=O)c3ccc(S(C)(=O)=O)c(F)c3)CC2)CO1", "note": "[Compound A-660, N-(2-{3,3-dimethyl-2-oxa-8-azaspiro[4.5]decan-8-yl}phenyl)-3-fluoro-4-methanesulfonylbenzene-1-sulfonamide]", "AC50": "8.01 to 9.99"}
{"smiles": "Cc1cc(S(=O)(=O)Nc2ccccc2N2CCC3(CC2)COC(C)(C)C3)ccc1F", "note": "[Compound A-661, N-(2-{3,3-dimethyl-2-oxa-8-azaspiro[4.5]decan-8-yl}phenyl)-4-fluoro-3-methylbenzene-1-sulfonamide]", "AC50": "2.01 to 8"}
{"smiles": "Cc1ccc(S(=O)(=O)Nc2ccccc2N2CCC3(CC2)COC(C)(C)C3)cc1", "note": "[Compound A-662, N-(2-{3,3-dimethyl-2-oxa-8-azaspiro[4.5]decan-8-yl}phenyl)-4-methylbenzene-1-sulfonamide]", "AC50": "≤ 2"}
{"smiles": "Cc1ccc(CS(=O)(=O)Nc2ccccc2N2CCC3(CC2)COC(C)(C)C3)cc1C", "note": "[Compound A-663, N-(2-{3,3-dimethyl-2-oxa-8-azaspiro[4.5]decan-8-yl}phenyl)-1-(3,4-dimethylphenyl)methanesulfonamide]", "AC50": "≤ 2"}
{"smiles": "Cc1cccc(CS(=O)(=O)Nc2ccccc2N2CCC3(CC2)COC(C)(C)C3)c1", "note": "[Compound A-664, N-(2-{3,3-dimethyl-2-oxa-8-azaspiro[4.5]decan-8-yl}phenyl)-1-(3-methylphenyl)methanesulfonamide]", "AC50": "≤ 2"}
{"smiles": "Cc1cccc(S(=O)(=O)Nc2ccccc2N2CCC3(CC2)COC(C)(C)C3)c1", "note": "[Compound A-665, N-(2-{3,3-dimethyl-2-oxa-8-azaspiro[4.5]decan-8-yl}phenyl)-3-methylbenzene-1-sulfonamide]", "AC50": "2.01 to 8"}
{"smiles": "CC1(C)CC2(CCN(c3ccccc3NS(=O)(=O)c3cnn(C4CCC4)c3)CC2)CO1", "note": "[Compound A-666, 1-cyclobutyl-N-(2-{3,3-dimethyl-2-oxa-8-azaspiro[4.5]decan-8-yl}phenyl)-1H-pyrazole-4-sulfonamide]", "AC50": "2.01 to 8"}
{"smiles": "CC1(C)CC2(CCN(c3ccccc3NS(=O)(=O)c3ccc(OC(F)F)c(F)c3)CC2)CO1", "note": "[Compound A-667, 4-(difluoromethoxy)-N-(2-{3,3-dimethyl-2-oxa-8-azaspiro[4.5]decan-8-yl}phenyl)-3-fluorobenzene-1-sulfonamide]", "AC50": "2.01 to 8"}
{"smiles": "CC1(C)CC2(CCN(c3ccccc3NS(=O)(=O)Cc3cccc(F)c3)CC2)CO1", "note": "[Compound A-668, N-(2-{3,3-dimethyl-2-oxa-8-azaspiro[4.5]decan-8-yl}phenyl)-1-(3-fluorophenyl)methanesulfonamide]", "AC50": "2.01 to 8"}
{"smiles": "CC1(C)CC2(CCN(c3ccccc3NS(=O)(=O)c3cccc(C4CC4)c3)CC2)CO1", "note": "[Compound A-669, 3-cyclopropyl-N-(2-{3,3-dimethyl-2-oxa-8-azaspiro[4.5]decan-8-yl}phenyl)benzene-1-sulfonamide]", "AC50": "≤ 2"}
{"smiles": "CC1(C)CC2(CCN(c3ccccc3NS(=O)(=O)c3cccc(C4OCCO4)c3)CC2)CO1", "note": "[Compound A-670, N-(2-{3,3-dimethyl-2-oxa-8-azaspiro[4.5]decan-8-yl}phenyl)-3-(1,3-dioxolan-2-yl)benzene-1-sulfonamide]", "AC50": "2.01 to 8"}
{"smiles": "CC1(C)CC2(CCN(c3ccccc3NS(=O)(=O)c3ccc(C(F)F)cc3)CC2)CO1", "note": "[Compound A-671, 4-(difluoromethyl)-N-(2-{3,3-dimethyl-2-oxa-8-azaspiro[4.5]decan-8-yl}phenyl)benzene-1-sulfonamide]", "AC50": "≤ 2"}
{"smiles": "CC1(C)CC2(CCN(c3ccccc3NS(=O)(=O)c3ccc(C4CC4)cc3)CC2)CO1", "note": "[Compound A-672, 4-cyclopropyl-N-(2-{3,3-dimethyl-2-oxa-8-azaspiro[4.5]decan-8-yl}phenyl)benzene-1-sulfonamide]", "AC50": "≤ 2"}
{"smiles": "CC1(C)CC2(CCN(c3ccccc3NS(=O)(=O)c3ccc(OC(F)(F)F)cc3)CC2)CO1", "note": "[Compound A-673, N-(2-{3,3-dimethyl-2-oxa-8-azaspiro[4.5]decan-8-yl}phenyl)-4-(trifluoromethoxy)benzene-1-sulfonamide]", "AC50": "2.01 to 8"}
{"smiles": "CC1(C)CC2(CCN(c3ccccc3NS(=O)(=O)c3ccc(C4CC4)s3)CC2)CO1", "note": "[Compound A-674, 5-cyclopropyl-N-(2-{3,3-dimethyl-2-oxa-8-azaspiro[4.5]decan-8-yl}phenyl)thiophene-2-sulfonamide]", "AC50": "≤ 2"}
{"smiles": "CC1(C)CC2(CCN(c3ccccc3NS(=O)(=O)C3=Cc4ccccc4OC3)CC2)CO1", "note": "[Compound A-675, N-(2-{3,3-dimethyl-2-oxa-8-azaspiro[4.5]decan-8-yl}phenyl)-2H-chromene-3-sulfonamide]", "AC50": "≤ 2"}
{"smiles": "CC1(C)CC2(CCN(c3ccccc3NS(=O)(=O)C3=Cc4ccccc4CC3)CC2)CO1", "note": "[Compound A-676, N-(2-{3,3-dimethyl-2-oxa-8-azaspiro[4.5]decan-8-yl}phenyl)-3,4-dihydronaphthalene-2-sulfonamide]", "AC50": "2.01 to 8"}
{"smiles": "Cc1ccc(CS(=O)(=O)Nc2ccccc2N2CCC3(CC2)COC(C)(C)C3)cc1F", "note": "[Compound A-677, N-(2-{3,3-dimethyl-2-oxa-8-azaspiro[4.5]decan-8-yl}phenyl)-1-(3-fluoro-4-methylphenyl)methanesulfonamide]", "AC50": "≤ 2"}
{"smiles": "CC1(C)CC2(CCN(c3ccccc3NS(=O)(=O)Cc3cccc(Cl)c3)CC2)CO1", "note": "[Compound A-678, 1-(3-chlorophenyl)-N-(2-{3,3-dimethyl-2-oxa-8-azaspiro[4.5]decan-8-yl}phenyl)methanesulfonamide]", "AC50": "≤ 2"}
{"smiles": "Cc1ccc(F)c(CS(=O)(=O)Nc2ccccc2N2CCC3(CC2)COC(C)(C)C3)c1", "note": "[Compound A-679, N-(2-{3,3-dimethyl-2-oxa-8-azaspiro[4.5]decan-8-yl}phenyl)-1-(2-fluoro-5-methylphenyl)methanesulfonamide]", "AC50": "≤ 2"}
{"smiles": "COCC1(C)CCN(c2ccccc2NS(=O)(=O)Cc2cccc(S(=O)(=O)N(C)C)c2)CC1", "note": "[Compound A-680, 3-[({2-[4-(methoxymethyl)-4-methylpiperidin-1-yl]phenyl}sulfamoyl)methyl]-N,N-dimethylbenzene-1-sulfonamide]", "AC50": "8.01 to 9.99"}
{"smiles": "COCC1(C)CCN(c2c(F)cccc2NS(=O)(=O)c2ccc(S(=O)(=O)N(C)C)cc2)CC1", "note": "[Compound A-681, N4-{3-fluoro-2-[4-(methoxymethyl)-4-methylpiperidin-1-yl]phenyl}-N1,N1-dimethylbenzene-1,4-disulfonamide]", "AC50": "≤ 2"}
{"smiles": "COCC1(C)CCN(c2ccccc2NS(=O)(=O)c2ccc3c(c2)COC3(C)C)CC1", "note": "[Compound A-682, N-{2-[4-(methoxymethyl)-4-methylpiperidin-1-yl]phenyl}-1,1-dimethyl-1,3-dihydro-2-benzofuran-5-sulfonamide]", "AC50": "2.01 to 8"}
{"smiles": "COCC1(C)CCN(c2ccccc2NS(=O)(=O)c2ccc3c(c2)C(C)(C)OC3)CC1", "note": "[Compound A-683, N-{2-[4-(methoxymethyl)-4-methylpiperidin-1-yl]phenyl}-3,3-dimethyl-1,3-dihydro-2-benzofuran-5-sulfonamide]", "AC50": "2.01 to 8"}
{"smiles": "COCC1(C)CCN(c2ccccc2NC(c2ccc(S(=O)(=O)N(C)C)cc2)C(F)(F)F)CC1", "note": "(centres unmarked) [Compound A-684, N,N-dimethyl-4-(2,2,2-trifluoro-1-((2-(4-(methoxymethyl)-4-methylpiperidin-1-yl)phenyl)amino)ethyl)benzenesulfonamide]", "AC50": "2.01 to 8"}
{"smiles": "COCC1(C)CCN(c2ccccc2NS(=O)(=O)c2ccc3c(c2)OC2(CCC2)O3)CC1", "note": "[Compound A-685, N-{2-[4-(methoxymethyl)-4-methylpiperidin-1-yl]phenyl}spiro[1,3-benzodioxole-2,1′-cyclobutane]-6-sulfonamide]", "AC50": "≤ 2"}
{"smiles": "COCC1(F)CCN(c2ccccc2NS(=O)(=O)c2ccc(S(=O)(=O)N(C)C)cc2)CC1", "note": "[Compound A-686, N4-[2-[4-fluoro-4-(methoxymethyl)piperidin-1-yl]phenyl}-N1,N1-dimethylbenzene-1,4-disulfonamide]", "AC50": "≤ 2"}
{"smiles": "CC1(C)CC2(CCN(c3ccccc3NS(=O)(=O)c3cccc(C4CC4(F)F)c3)CC2)CO1", "note": "(centres unmarked) [Compound A-687, 3-(2,2-difluorocyclopropyl)-N-(2-{3,3-dimethyl-2-oxa-8-azaspiro[4.5]decan-8-yl}phenyl)benzene-1-sulfonamide]", "AC50": "≤ 2"}
{"smiles": "Cc1ccc(CS(=O)(=O)Nc2ccccc2N2CCC3(CC2)COC(C)(C)C3)c(F)c1", "note": "[Compound A-688, N-(2-{3,3-dimethyl-2-oxa-8-azaspiro[4.5]decan-8-yl}phenyl)-1-(2-fluoro-4-methylphenyl)methanesulfonamide]", "AC50": "2.01 to 8"}
